Source: patent US6949648B2, “Condensed pyrazole derivatives, process for producing the same and use thereof” (Takeda Pharmaceutical Company Limited, priority 2000, dated 2005)
Where two headings read alike, the source gives them in different places.

What was measured:
[1] = system: acetic acid induced rising and stretching; assay: Analgesic activity, acetic acid rising method; assay type: in vivo, ICR-mice; conditions: po, 20 min; 10 mg/kg orally, 30 minutes before 0.6% acetic acid i.p.; number of rising and stretching in 20 minutes; read-out: Repression rate (%) Dosage 10 mg/kg
How it was run: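 Male ICR mice (5 weeks, n=10/group) dosed orally; 30 min later injected i.p. with 0.6% acetic acid. Rising and stretching counted over 20 min; repression rate (%) from group mean counts versus controls.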

[2] = molecular target: T1, human COX-1 (Homo sapiens, UniProt P23219); assay: Determination of COX-1 inhibitory activity (microsome fraction, chemiluminescence); assay type: biochemical; conditions: microsome fraction 40 μg, arachidonic acid, 37° C. 25 minutes preincubation; read-out: Repression rate IC50 (μM) COX-1
T1 construct: made in house; host or cells: Sf-21 insect cells (recombinant baculovirus BAC-COX1, pFASTBAC1); microsome fraction
T1 sequence (P23219 24-599): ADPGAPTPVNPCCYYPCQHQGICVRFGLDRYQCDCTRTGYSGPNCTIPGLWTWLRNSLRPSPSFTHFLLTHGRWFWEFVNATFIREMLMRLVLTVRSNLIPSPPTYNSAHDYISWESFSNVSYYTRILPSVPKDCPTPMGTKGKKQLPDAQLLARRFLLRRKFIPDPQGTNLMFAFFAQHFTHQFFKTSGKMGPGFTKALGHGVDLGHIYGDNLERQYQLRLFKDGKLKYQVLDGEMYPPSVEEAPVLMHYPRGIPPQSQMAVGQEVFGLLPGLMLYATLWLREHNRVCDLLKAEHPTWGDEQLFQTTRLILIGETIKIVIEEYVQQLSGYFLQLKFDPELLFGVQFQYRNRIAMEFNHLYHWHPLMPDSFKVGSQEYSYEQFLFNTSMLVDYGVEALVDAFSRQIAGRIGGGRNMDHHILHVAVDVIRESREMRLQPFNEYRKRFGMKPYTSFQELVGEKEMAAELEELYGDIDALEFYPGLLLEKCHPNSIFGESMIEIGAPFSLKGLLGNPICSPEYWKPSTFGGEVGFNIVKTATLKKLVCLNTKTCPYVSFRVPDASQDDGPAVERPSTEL
Experimental: A 1.8 kb DNA fragment containing human COX-1 cDNA (FASEB J., vol. 5 (9), p. 2304-2312 (1991)) prepared by the PCR method was inserted into plasmid pFASTBAC1 (CIBCOBRL) to obtain a plasmid pFBCOX1.
Using the plasmid pFBCOX1 and BAC-TO-BAC Baculovirus Expression System (GIBCOBRL), a virus stock BAC-COX1 of the recombinant baculovirus was prepared.
Sf-21 cells were inoculated in 125 mL of Sf-900 II SFM medium (GIBCOBRL) at a concentration of 1×10^6 cells/mL, and the medium was incubated at 27° C. for 24 hours. 0.75 mL of the virus stock BAC-COX1 of the recombinant baculovirus was added thereto, and the mixture was incubated further for 72 hours. The cells were separated from the medium by centrifugation (3000 rpm, 10 min), and washed with PBS twice. The cells were suspended in 10 mL of a Lysis buffer (0.1M Tris-HCl (pH 7.4), 5 mM EDTA), and were treated with a homogenizer (POLYTRON) three times at 20000 rpm for 20 seconds so that the cells were crushed. The supernatant obtained after centrifugation (2000 rpm, 10 minutes) was further centrifuged (40000 rpm, 45 minutes) to give a precipitate, which was resuspended in a Lysis buffer (0.1M Tris-HCl (pH 7.4), 5 mM EDTA), and the suspension was stored at −80° C.
Determination of COX-1 and COX-2 Inhibitory Activities
To a mixture of 20 μL of a reaction buffer previously concentrated 10 times (1M Tris-HCl (pH8.0), 50 mM EDTA, 1.0% Tween 20, 50 mM luminol, 100 μM hematin), 20 μL of the microsome fractions (COX-1: 40 μg, COX-2: 20 μg), and 55 μL of distilled water, a sample compound dissolved in DMF (5 μL) was added, and the mixture was left at 37° C. for 25 minutes. The reaction was started by the addition of 20 μM arachidonic acid (100 μL), and chemiluminescence amount during the 10-second period after the addition of arachidonic acid was determined by the use of Lumistar (BMG Lab technologies, GmbH). The inhibition rate was calculated, regarding that the enzyme activity when DMF ([…]) was added was 100%, and the enzyme activity when 4 mM flurbiprofen (5 μL) was added was 0%.

[3] = system: carrageenin edema of right hind limb plantar; assay: Anti-inflammatory activity, carrageenin edema method; assay type: in vivo, SD-rats; conditions: po
How it was run: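 Male 6-week-old SD rats (n=6/group) dosed orally with sample, then 5 mL water; controls got solvent only. One hour later, 0.05 mL 1% carrageenin was injected subcutaneously into the right hind paw. Paw volume measured before and 2 and 3 h after injection; % inhibition versus control calculated.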

[4] = 10 mg/kg orally, 2 hr after carrageenin injection, read-out: Repression rate (%) Dosage 10 mg/kg 2 hr later
[5] = 10 mg/kg orally, 3 hr after carrageenin injection, read-out: Repression rate (%) Dosage 10 mg/kg 3 hr later

Row | IC50 [2] | melting point | SMILES | inhibition in vivo at 10 mg/kg [1] | inhibition in vivo at 10 mg/kg [3, 4] | inhibition in vivo at 10 mg/kg [3, 5] | inhibition in vivo at 10 mg/kg ([3]; 2 h, read-out: Repression rate (%) Dosage 10 mg/kg 2 hr later) | inhibition in vivo at 10 mg/kg ([3]; 3 h, read-out: Repression rate (%) Dosage 10 mg/kg 3 hr later)
1 | 21.7 µM | 121 to 122 °C | CCCNc1c2ccccc2nc2c1c(C)nn2-c1ccccn1 [Example 2-6, N-[3-Methyl-1-(2-pyridinyl)-1H-pyrazolo[3,4-b]quinolin-4-yl]-N-propylamine] | 57% | 43% | 35% | – | –
2 | 7.28 µM | – | CCCOc1c2ccccc2nc2c1c(C)nn2-c1ccccn1 [Example 2-17, 3-Methyl-4-propoxy-1-(2-pyridinyl)-1H-pyrazolo[3,4-b]quinoline] | 49% | 45% | 37% | – | –
3 | 4.21 µM | – | Cc1nn(-c2ccccn2)c2nc3ccccc3c(OC3CCCC3)c12 [Example 2-21, 4-Cyclopentyloxy-3-methyl-1-(2-pyridinyl)-1H-pyrazolo[3,4-b]quinoline] | 56% | 52% | 45% | – | –
4 | 2.66 µM | 240 to 242 °C | O=c1c2ccccc2[nH]c2c1cnn2-c1ccccn1 [Example 2-159, 1-(2-Pyridinyl)-1,9-dihydro-4H-pyrazolo[3,4-b]quinolin-4-one] | 69% | 50% | 39% | – | –

Row | SMILES | IC50 [2] | melting point | inhibition in vivo at 10 mg/kg [1] | inhibition in vivo at 10 mg/kg [3, 4] | inhibition in vivo at 10 mg/kg [3, 5] | inhibition in vivo at 10 mg/kg ([3]; 2 h, read-out: Repression rate (%) Dosage 10 mg/kg 2 hr later) | inhibition in vivo at 10 mg/kg ([3]; 3 h, read-out: Repression rate (%) Dosage 10 mg/kg 3 hr later)
5 | Cc1nn(-c2ccccn2)c2[nH]c3cccc(F)c3c(=O)c12.Cl [Example 2-79, 5-Fluoro-3-methyl-1-(2-pyridinyl)-1,9-dihydro-4H-pyrazolo[3,4-b]quinolin-4-one hydrochloride] | 7.8 µM | > 380 °C | 38% | – | – | 37% | 33%
